We go through seven compounds from US11787781B2, “Inhibiting ataxia telangiectasia and RAD3-related protein (ATR)” (Celator Pharmaceuticals, Inc., priority 2016, dated 2023).

Data set [1] concerns the target ATR/ATRIP(h) (Homo sapiens (Human), UniProt Q13535). In words: Eurofins ATR/ATRIP HTRF assay, p53 Ser15 phosphorylation. It is filed as biochemical. The following applies: ATP 10 μM; for Hill: four parameter logistic fit; for Bottom / Top: four parameter logistic fit of % control activity. On the set-up: key to Top / Bottom: % of DMSO positive control activity. Here is the method:
An EC50 determination was conducted for the supplied set of compounds against the kinase ATR/ATRIP(h), using a linear enzyme concentration in the Eurofins ATR/ATRIP HTRF assay using GST tagged full length p53 as the substrate.
ATR/ATRIP phosphorylation of p53 on Ser15 was measured via formation of an energy transfer complex consisting of a Europium-labelled anti-phospho Ser15 p53 antibody and an anti-GST-d2 antibody. All data points were performed in duplicate with DMSO controls and EDTA blanks.
ATR/ATRIP(h) was pre-diluted in 25 mM HEPES pH 8.0, 0.01% Brij-35, 1% Glycerol, 5 mM DTT, 1 mg/mL BSA and assayed in 25 mM HEPES pH 8.0, 0.01% Brij-35, 1% Glycerol, 10 mM MnCl2 using 30 nM GST, cMyc p53-(hu,FL) as the substrate. The reaction was initiated with the addition of ATP to a final concentration of 10 μM.
The individual replicates were expressed in terms of the % of the DMSO positive control activity. The mean activity (% control) of each inhibitor concentration was plotted against the inhibitor concentration, and EC50 values were determined using […] PRISM.
The data expressed as % control activity were plotted against inhibitor concentration, and fitted to a four parameter logistic using […] PRISM. Graphs for each compound are shown alongside the data in the accompanying Excel report.
A general note: TR-FRET usually uses a lanthanide donor and a delayed reading to cut background.

Data set [2] can be described thus: Loading of ATR inhibitors into TEA-SOS liposomes and liposome characterization. It is filed as physicochemical. The following applies: for Loading efficiency (%) / Drug/lipid ratio after loading: TEA-SOS liposomes; for Loading efficiency (%): Compound 1 at ratio before loading 379; for Drug/lipid ratio after loading: input ratio before loading (Compound 1: 379); for Liposome size, (mean ± SD) nm: liposomes loaded with the ATR inhibitor. The procedure:
Sodium sucrose octasulfate (equivalent weight 144.8) is a sodium salt of sucrose derivate in which all hydroxyl groups have formed sulfuric acid esters. Sixty gram of sucrose octasulfate (SOS) sodium salt were dissolved in 150 ml of di water, heated with shaking (swirling) of a 50° C. water bath. The solution was passed through a column packed with sulfonated polystyrene divinylbenzene copolymer cation exchange resin beads (Dowex 50Wx8-100-200 mesh, Dow Chemical Co.). […] The eluent was monitored using a conductivity detector. The SOS fraction was collected corresponding to conductivity peak and immediately titrated with neat triethylamine (TEA) solution to pH 6-6.5. The solution was analyzed for residual sodium by potentiometry using a sodium-sensitive electrode and for SOS concentration using a refractometer. The solution having residual sodium less than 0.25% was diluted with di water to final SOS concentration 1.1 M and then sterile-filtered using Millipore 0.22 μm Steri-Top filter.
Cholesterol (Chol) was purchased from Avanti Polar Lipids, Alabaster, Ala., USA, hydrogenated soy phosphocholine (HSPC) and methoxy-poly(ethylene glycol)-1,2-distearoyl-sn-glyceryl (PEG2000-DSG) were obtained from Lipoid GmbH, Ludwigshafen, Germany.
Chol, HSPC and PEG2000-DSG were co-dissolved in 100% ethanol (200-proof, Sigma cat #: 459828) at a molar ratio of 3:2:0.15 at 65° C. The solution of TEA-SOS (10 times the volume of added ethanol) was mixed with the lipid solution at 60-65° C. and stirred at this temperature until a homogeneous milky suspension of multilamellar vesicles was formed. This suspension was extruded 3 times through 5 stacked polycarbonate track-etched filters (Corning Nuclepore) with the pore size of 100 nm using argon pressure extruder (Lipex Biomembranes) at 60-65° C., and resulting unilamellar liposomes were quickly chilled in ice and then stored at 4-6° C. before use. Concentration of phospholipids was measured by phosphate assay and particle diameter was recorded on a Malvern Nanosizer.
Prior to drug loading, the TEA-SOS gradient was created by removing excess of un-trapped TEA-SOS using gel-chromatography (Sepharose CL-4B, Pharmacia). Osmolarity of liposomes was balanced using 50% dextrose solution. Final dextrose concentration was 15%.
ATR inhibitors were dissolved in 15% dextrose solutions in di water by titration with 1 M HCl and heating at 45° C. and then filtered with 0.2 micron NALGENE 13 mm Syringe Filters. Drug concentration in the solution was detected by HPLC. […]
The liposome-drug mixture was incubated with occasional agitation for 30 minutes at 65° C. The incubation mixture was quickly cooled down and incubated for 10 minutes at 0° C., then allowed to attain ambient temperature. Un-encapsulated drug was removed by gel chromatography on Sephadex G-25 (Amersham Pharmacia) eluted with HBS-6.5 buffer (5 mM 2-(4-(2-hydroxyethyl)-piperazino)-ethylsulfonic acid (HEPES), 144 mM NaCl, pH 6.5). Liposome fractions eluted in the void volume were combined, sterilized by 0.2 micron filtration, and stored at 4-6° C. before use. The liposomes were characterized by lipid concentration, drug concentration, and particle size (Table 2).

Data set [3] addresses ATM(h) (Homo sapiens (Human), UniProt Q13315). Put plainly: ATM activity, […] KINASEPROFILER
The following applies: estimated IC50. It counts as biochemical. The source says:
Estimated IC50 values are as follows (obtained using […] KINASEPROFILER): […]

Data set [4] in a line: pKa. It counts as physicochemical. The following applies: method not stated.
The subject of data set [5] is SUM149 cells. Put plainly: Cell cycle stage profile, SUM149 cells. It counts as cell-based. The following applies: 24 hours after addition of SN38 and ATR inhibitor.
Data set [6] deals with total and phospho-ATR (S428), phospho-CHK1 (S317 and S345) in DMS-114 cells. Put plainly: Western blot of total and phospho-ATR, phospho-CHK1 in DMS-114 cells. It counts as cell-based. The procedure:
Whole cell protein lysates were generated after 1, 3, 6 and 24 hours using a 2% SDS containing cell lysis buffer and stored at −80° C. until all samples were collected and run together at the same time for the WesternBlot analysis. The following proteins and phosphoproteins of interest were detected by antibodies purchased from Cell Signaling Technology (see methods and materials part below): total and phospho-ATR (S428), phospho-CHK1 (S317 and S345), γH2AX, beta-actin.
All target and phospho-specific antibodies were purchased from Cell Signaling and/or Epitomics and were used at 1:1000 dilutions. A list of all antibodies is available in Table 6. Standard antibody based Western blot and immunohistochemistry protocols were used. Briefly, 2% SDS based cell lysis buffer was used to collect whole cell lysate for Western Blotting. Secondary antibodies and staining protocols were purchased and followed regarding LiCor Biosciences and/or BD Bioscience.
Cells were grown and treated in a 6 cm dish scale. To harvest cells, medium was removed and quickly replaced by ice cold PBS. PBS was then replaced with 250 μL of 2% SDS lysis buffer. After five minutes of incubation, the lysed cells were scraped off and loaded onto a cell lysate homogenizer microcentrifuge spin-column (QIAshredder, Qiagen, Cat.-Nr. 79656). The filtrate was then loaded onto a 0.2 μm centrifugal filter column (Nanosep MF 0.2_m, Pall, Cat.-Nr. ODM02C34). The lysates were then stored at −80° C.
(In western blotting, separated proteins are transferred to a membrane and probed.)

Data set [7] has as its system NCI-H596 cells. In words: Cell number over time, NCI-H596 cells. Particulars: 1 μM in combination with SN38 0.2 μM. It counts as cell-based.
Data set [8] has as its system MS-751 cells. Put plainly: In vitro growth assay, MS-751 cells. It counts as cell-based. The following applies: in combination with SN38.
Data set [9] concerns NCI-H520 cells. Put plainly: Cell number over time, NCI-H520 cells. It counts as cell-based. The following applies: 1 μM in combination with SN38 0.2 μM.
The test system of data set [10] is U2OS cells. Put plainly: Cell death and growth assay, U2OS cells. It counts as cell-based. The procedure: U20S and all other cells were grown in (RPMI) supplemented with 10% fetal bovine serum (FBS) and antibiotics. Imaging and time-lapse compatible NucLight red cell lines were generated as recommend by Essen Bioscience Inc. using lentiviral particles, infection and puromycin selection protocols.
The results were compared back to a prediction of cell growth and death with the combination of the two compounds (FIG. 18A).
In all cases, relative cell proliferation is reduced with the combinations compared to the drugs alone (FIG. 21B-C).

Sequence of ATR/ATRIP(h) (Q13535 whole entry): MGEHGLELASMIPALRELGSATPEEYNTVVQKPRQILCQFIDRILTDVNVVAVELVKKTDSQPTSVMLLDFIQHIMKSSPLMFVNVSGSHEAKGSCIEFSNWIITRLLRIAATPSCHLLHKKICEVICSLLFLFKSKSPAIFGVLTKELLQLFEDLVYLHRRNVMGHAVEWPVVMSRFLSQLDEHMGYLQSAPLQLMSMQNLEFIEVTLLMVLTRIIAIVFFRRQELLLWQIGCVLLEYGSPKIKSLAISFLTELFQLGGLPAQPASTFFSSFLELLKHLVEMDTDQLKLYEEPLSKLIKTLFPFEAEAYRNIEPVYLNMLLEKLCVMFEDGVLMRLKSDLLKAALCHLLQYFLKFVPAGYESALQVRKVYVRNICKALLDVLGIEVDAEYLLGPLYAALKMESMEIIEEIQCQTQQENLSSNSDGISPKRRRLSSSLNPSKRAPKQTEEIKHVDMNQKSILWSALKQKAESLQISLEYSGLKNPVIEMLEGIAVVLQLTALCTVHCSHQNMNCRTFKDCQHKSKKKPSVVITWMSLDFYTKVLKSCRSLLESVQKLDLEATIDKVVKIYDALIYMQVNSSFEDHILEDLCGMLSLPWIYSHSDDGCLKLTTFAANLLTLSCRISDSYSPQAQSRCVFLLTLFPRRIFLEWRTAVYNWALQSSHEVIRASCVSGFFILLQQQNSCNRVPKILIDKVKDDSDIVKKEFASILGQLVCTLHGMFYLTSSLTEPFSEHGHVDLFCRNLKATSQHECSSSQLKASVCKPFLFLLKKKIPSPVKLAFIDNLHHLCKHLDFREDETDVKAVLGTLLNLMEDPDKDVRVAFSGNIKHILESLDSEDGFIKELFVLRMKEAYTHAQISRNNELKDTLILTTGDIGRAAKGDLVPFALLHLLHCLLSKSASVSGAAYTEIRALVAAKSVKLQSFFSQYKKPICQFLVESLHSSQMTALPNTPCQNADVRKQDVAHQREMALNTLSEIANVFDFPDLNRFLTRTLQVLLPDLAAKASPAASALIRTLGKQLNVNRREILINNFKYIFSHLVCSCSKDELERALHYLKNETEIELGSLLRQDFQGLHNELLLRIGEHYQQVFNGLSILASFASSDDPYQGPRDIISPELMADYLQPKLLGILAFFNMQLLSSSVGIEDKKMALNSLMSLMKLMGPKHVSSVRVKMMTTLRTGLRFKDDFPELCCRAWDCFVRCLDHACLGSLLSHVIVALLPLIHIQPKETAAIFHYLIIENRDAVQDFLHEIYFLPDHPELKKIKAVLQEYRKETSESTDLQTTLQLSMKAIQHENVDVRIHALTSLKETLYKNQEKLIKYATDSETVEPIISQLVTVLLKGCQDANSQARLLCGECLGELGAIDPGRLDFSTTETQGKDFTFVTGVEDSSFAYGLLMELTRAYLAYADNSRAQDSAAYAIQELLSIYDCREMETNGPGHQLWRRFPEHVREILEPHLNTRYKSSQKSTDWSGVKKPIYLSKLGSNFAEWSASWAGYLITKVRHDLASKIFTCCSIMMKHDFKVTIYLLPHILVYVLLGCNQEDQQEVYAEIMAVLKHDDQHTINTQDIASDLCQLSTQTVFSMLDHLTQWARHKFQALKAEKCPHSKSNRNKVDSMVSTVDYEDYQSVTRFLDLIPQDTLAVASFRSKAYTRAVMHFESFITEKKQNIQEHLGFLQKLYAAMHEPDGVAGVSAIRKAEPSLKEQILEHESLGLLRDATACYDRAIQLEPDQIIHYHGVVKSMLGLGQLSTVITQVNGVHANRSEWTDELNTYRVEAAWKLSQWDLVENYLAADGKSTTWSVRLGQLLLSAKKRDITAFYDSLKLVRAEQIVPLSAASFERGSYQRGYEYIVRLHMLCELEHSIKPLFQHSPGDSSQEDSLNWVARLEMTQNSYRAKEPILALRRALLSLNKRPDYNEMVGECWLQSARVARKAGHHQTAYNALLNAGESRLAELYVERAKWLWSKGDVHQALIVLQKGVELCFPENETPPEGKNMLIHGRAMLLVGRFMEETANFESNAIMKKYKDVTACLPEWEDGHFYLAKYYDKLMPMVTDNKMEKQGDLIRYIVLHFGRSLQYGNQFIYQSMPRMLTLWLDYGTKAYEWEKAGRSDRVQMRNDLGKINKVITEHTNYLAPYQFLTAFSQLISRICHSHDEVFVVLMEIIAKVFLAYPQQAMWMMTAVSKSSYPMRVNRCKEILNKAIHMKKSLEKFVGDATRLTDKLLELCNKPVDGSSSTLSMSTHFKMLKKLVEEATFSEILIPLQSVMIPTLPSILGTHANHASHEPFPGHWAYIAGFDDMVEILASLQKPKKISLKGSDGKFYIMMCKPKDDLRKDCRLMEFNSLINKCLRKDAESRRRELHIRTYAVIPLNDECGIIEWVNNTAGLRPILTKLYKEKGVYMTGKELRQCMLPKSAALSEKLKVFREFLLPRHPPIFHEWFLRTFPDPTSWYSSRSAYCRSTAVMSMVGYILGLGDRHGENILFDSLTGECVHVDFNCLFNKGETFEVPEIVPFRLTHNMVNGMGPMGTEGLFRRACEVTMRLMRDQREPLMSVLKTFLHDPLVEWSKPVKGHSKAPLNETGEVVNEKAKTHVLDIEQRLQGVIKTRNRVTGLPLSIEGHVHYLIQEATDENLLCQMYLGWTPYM
Sequence of ATR/ATRIP(h) (Q8WXE1 whole entry partner): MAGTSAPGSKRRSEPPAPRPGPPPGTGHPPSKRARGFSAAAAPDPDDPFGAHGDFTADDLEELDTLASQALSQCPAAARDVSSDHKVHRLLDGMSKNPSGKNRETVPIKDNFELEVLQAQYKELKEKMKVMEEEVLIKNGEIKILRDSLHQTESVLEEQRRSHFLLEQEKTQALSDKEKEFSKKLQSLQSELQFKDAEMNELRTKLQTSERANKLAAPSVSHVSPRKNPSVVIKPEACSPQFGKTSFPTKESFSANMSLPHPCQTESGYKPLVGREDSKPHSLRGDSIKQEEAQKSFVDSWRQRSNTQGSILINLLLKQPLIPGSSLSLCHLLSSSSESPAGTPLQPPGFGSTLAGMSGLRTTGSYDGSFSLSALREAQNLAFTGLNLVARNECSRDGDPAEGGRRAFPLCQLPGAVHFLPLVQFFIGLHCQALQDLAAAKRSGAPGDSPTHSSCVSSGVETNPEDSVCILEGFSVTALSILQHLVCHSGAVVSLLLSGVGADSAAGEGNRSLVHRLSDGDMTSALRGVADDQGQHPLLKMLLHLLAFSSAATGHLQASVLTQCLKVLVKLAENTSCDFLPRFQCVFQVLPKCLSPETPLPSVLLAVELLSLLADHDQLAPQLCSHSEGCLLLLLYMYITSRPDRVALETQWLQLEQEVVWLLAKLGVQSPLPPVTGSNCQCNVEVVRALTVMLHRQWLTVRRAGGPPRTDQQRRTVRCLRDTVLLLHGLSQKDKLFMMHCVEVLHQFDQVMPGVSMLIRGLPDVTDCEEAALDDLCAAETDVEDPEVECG

As for `CN1CCN(CCS(=O)(=O)c2ccc(-c3cnc(N)c(C(=O)Nc4ccccc4)n3)cc2)CC1` [Compound 3, 3-amino-6-(4-((2-(4-methylpiperazin-1-yl)ethyl)sulfonyl)phenyl)-N-phenylpyrazine-2-carboxamide], in data set [1], the midpoint of the response, the EC50, lay at 196 nM; the Hill was −0.776; the Bottom is −3; the Top is listed as 98. Besides, in data set [2], the “Loading efficiency (%)” value is on record as 97 ± 5%; the “Drug/lipid ratio after loading” value was 628 ± 6; the “Liposome size, (mean ± SD) nm” value is recorded as 120 ± 27 nm. Further, in data set [3], the IC50 – broadly, the midpoint of a concentration-inhibition curve – is more than 10000 nM. Moreover, in data set [4], the pKa – broadly, the pH at which an ionisable group is half protonated – was found to be 7.73.
Consider `CNCc1ccc(-c2cc(-c3nc(-c4ccc(S(=O)(=O)C(C)C)cc4)cnc3N)on2)cc1` [Compound A], for which the “cell cycle stage profile vs controls” value in data set [5] is on record as “larger percentage of cells are arrested in G2 phase”. Further, in data set [6] (ATR inhibitor 1 μM added to Gemcitabine 16 nM), the “phosphorylation signal of CHK1 (S317 and S345) induced by Gemcitabine” value is given as “abrogates the phosphorylation signal of CHK1”. Moreover, in data set [6] (ATR inhibitor 1 μM, alone or with Gemcitabine 16 nM, up to 24 hrs), the “total and phospho-ATR signal” value is listed as “strongly reduced”. Further, the “cell numbers over time vs either agent in isolation” value in [7], in data set [9] and in [10] (1 μM in combination with SN38 0.2 μM) was “more effective at maintaining or reducing cell numbers over time” throughout. Also, the “Liposome size, (mean ± SD) nm” value in [2] worked out at 121 ± 26 nm. In addition, in data set [3], the IC50 was 42 nM. The “cell number over time vs either compound alone” value in data set [8] is “reduction in cell number over time”. For the same compound, the “cell death vs either compound alone” value in data set [10] (Compound A (1 μM) combined with Gemcitabine (0.04 μM)) is recorded as “better at promoting cell death”.
With `CCN(CC)C1CCN(CCS(=O)(=O)c2ccc(-c3cnc(N)c(C(=O)Nc4ccccc4)n3)cc2)CC1` [Compound 6, 3-amino-6-(4-((2-(4-(diethylamino)piperidin-1 yl)ethyl)sulfonyl)phenyl)-N-phenylpyrazine-2-carboxamide], in data set [1], the EC50 – broadly, the concentration that produces a half-maximal response – was found to be 471 nM; the Hill is on record as −0.768; the Bottom is recorded as −2; the Top is given as 101. In addition, in data set [2], the “Loading efficiency (%)” value stood at 74 ± 0.3%; the “Drug/lipid ratio after loading” value was 550 ± 64; the “Liposome size, (mean ± SD) nm” value came to 119 ± 28 nm. In data set [3], the IC50 was more than 10000 nM. In data set [4], this compound returned a pKa of 9.81.
In [1], `CCN(CC)CCS(=O)(=O)c1ccc(-c2cnc(N)c(C(=O)Nc3ccccc3)n2)cc1` [Compound 2, 3-amino-6-(4-((2-(diethylamino)ethyl)sulfonyl)phenyl)-N phenylpyrazine-2-carboxamide] had an EC50 of 140 nM, a Hill of −0.911, a Bottom of 1 and a Top of 94. In data set [2], the “Loading efficiency (%)” value is 100 ± 5%; the “Drug/lipid ratio after loading” value was found to be 639 ± 22; the “Liposome size, (mean ± SD) nm” value worked out at 130 ± 34 nm. For the same compound, in data set [3], the concentration for half-maximal inhibition (IC50) is 4820 nM. Also, in [4], the pKa was determined as 7.46.
Compound `CN(C)CCNS(=O)(=O)c1ccc(-c2cnc(N)c(C(=O)Nc3ccccc3)n2)cc1` [Compound 4, 3-amino-6-(4-(((2-(dimethylamino)ethyl)-λ^2-azanyl)sulfonyl)phenyl)-N-phenylpyrazine-2-carboxamide] came in with a half-maximal effective concentration (EC50) in data set [1] of 353 nM. Moreover, in data set [3], the IC50 was 6870 nM. Further, the pKa in [4] worked out at 8.36.
For `Nc1ccn([C@@H]2O[C@H](CO)[C@@H](O)C2(F)F)c(=O)n1` [Gemcitabine], in data set [6] (Gemcitabine 16 nM alone, over 24 hrs), the “phospho-CHK1 (S317 and S345) signaling” value was “significantly increased”.
Consider `CC(CN(C)C)S(=O)(=O)c1ccc(-c2cnc(N)c(C(=O)Nc3ccccc3)n2)cc1` (stereo not shown) [Compound 1, 3-amino-6-(4-((1-(dimethylamino)propan-2-yl)sulfonyl)phenyl)-N-phenylpyrazine-2-carboxamide], for which, in [1], the EC50 is 49.6 nM, the Hill was −0.772, the Bottom is −1 and the Top was found to be 95. Besides, the loading efficacy result in data set [2] (Compound 1: at drug to lipid ratio higher than 400 g/mol) is listed as “formed aggregates”. Moreover, in data set [2], the “Loading efficiency (%)” value is on record as 98%; the “Drug/lipid ratio after loading” value is 369; the “Liposome size, (mean ± SD) nm” value was 122 ± 24 nm. In addition, the “Drug/lipid ratio after loading (loadability)” value in data set [2] (drug/lipid ratio before loading 600-800) is recorded as “Not loadable. Formed aggregates”. The IC50 in [3] was 3860 nM. In data set [4], this compound returned a pKa of 7.04.
